What follows are molecules tested against MAPKAPK3 (human) (UniProt Q16644) (assay: radiometric filter-binding kinase assay, Kinase HotSpot). Details: compound 0.5 µM; ATP 10 µM.
`COc1cc2c(Nc3ccc(Br)cc3F)ncnc2cc1OCC1CCN(C)CC1` was tested, and the residual activity was 98.5%.
`N/C(=N\N=C/c1ccc(-c2cccc([N+](=O)[O-])c2)o1)N[N+](=O)[O-]` showed a residual activity of 95.4%.
Molecule `O=S(=O)(NCCNC/C=C/c1ccc(Br)cc1)c1cccc2cnccc12` has a residual activity of 97.8%.
Molecule `c1ccc(-c2cnc(Nc3ccc(OCCN4CCCC4)cc3)s2)cc1` has a residual activity of 97.6%.

Each molecule was assayed against RIPK2 (human) (UniProt O43353) in the same assay as above. Details: compound 0.5 µM; ATP 10 µM.
Work on `COc1cc2c(Nc3ccc(Br)cc3F)ncnc2cc1OCC1CCN(C)CC1` yielded a residual activity of 23.4%.
`N/C(=N\N=C/c1ccc(-c2cccc([N+](=O)[O-])c2)o1)N[N+](=O)[O-]` was tested, and the residual activity was 106%.
For `O=S(=O)(NCCNC/C=C/c1ccc(Br)cc1)c1cccc2cnccc12`, the residual activity was 77.8%.
`c1ccc(-c2cnc(Nc3ccc(OCCN4CCCC4)cc3)s2)cc1` was tested, and the residual activity was 50.4%.

Each molecule was assayed against SRPK2 (human) (UniProt P78362) in the same assay as above. Details: compound 0.5 µM; ATP 10 µM.
Chain of SRPK2 (human) (P78362 whole entry, looked up): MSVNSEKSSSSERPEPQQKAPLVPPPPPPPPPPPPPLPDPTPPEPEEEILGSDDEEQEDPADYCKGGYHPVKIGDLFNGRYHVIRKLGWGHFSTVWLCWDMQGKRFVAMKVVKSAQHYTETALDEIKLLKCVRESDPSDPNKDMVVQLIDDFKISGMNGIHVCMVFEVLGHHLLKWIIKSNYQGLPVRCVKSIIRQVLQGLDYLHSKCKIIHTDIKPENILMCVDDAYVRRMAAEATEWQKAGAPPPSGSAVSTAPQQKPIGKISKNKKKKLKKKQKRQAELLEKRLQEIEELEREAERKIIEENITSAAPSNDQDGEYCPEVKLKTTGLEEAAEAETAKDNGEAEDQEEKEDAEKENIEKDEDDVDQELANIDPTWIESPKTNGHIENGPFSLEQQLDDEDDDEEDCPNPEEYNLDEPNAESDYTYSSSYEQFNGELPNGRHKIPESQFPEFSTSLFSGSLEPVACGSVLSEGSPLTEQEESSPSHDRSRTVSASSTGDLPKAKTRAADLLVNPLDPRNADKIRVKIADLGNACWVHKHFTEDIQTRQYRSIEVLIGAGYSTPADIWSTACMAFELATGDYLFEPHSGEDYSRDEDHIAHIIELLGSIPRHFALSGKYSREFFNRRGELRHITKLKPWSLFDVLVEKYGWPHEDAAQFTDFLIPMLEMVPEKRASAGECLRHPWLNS
Molecule `COc1cc2c(Nc3ccc(Br)cc3F)ncnc2cc1OCC1CCN(C)CC1` has a residual activity of 106%.
With `N/C(=N\N=C/c1ccc(-c2cccc([N+](=O)[O-])c2)o1)N[N+](=O)[O-]` the residual activity was 101%.
In the case of `O=S(=O)(NCCNC/C=C/c1ccc(Br)cc1)c1cccc2cnccc12`, the residual activity was 88.3%.
For `c1ccc(-c2cnc(Nc3ccc(OCCN4CCCC4)cc3)s2)cc1`, the residual activity was 103%.

Each molecule was assayed against MATK (human) (UniProt P42679) in the same assay as above. Details: compound 0.5 µM; ATP 10 µM.
Chain of MATK (human) (P42679 whole entry, looked up): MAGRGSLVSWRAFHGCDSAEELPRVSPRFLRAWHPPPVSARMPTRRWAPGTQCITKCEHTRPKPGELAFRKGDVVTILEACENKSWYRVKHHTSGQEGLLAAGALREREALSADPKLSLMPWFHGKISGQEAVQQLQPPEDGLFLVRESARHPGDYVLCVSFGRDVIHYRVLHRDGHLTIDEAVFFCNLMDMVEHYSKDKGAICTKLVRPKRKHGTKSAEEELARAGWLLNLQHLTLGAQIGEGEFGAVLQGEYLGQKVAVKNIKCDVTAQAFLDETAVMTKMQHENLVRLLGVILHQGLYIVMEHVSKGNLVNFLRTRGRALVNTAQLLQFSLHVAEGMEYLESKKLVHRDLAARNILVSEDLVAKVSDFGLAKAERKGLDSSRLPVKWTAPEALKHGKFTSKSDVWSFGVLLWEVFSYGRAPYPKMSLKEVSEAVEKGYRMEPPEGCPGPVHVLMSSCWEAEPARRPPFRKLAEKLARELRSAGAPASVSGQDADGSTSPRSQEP
`COc1cc2c(Nc3ccc(Br)cc3F)ncnc2cc1OCC1CCN(C)CC1` gave a residual activity of 101%.
In the case of `N/C(=N\N=C/c1ccc(-c2cccc([N+](=O)[O-])c2)o1)N[N+](=O)[O-]`, the residual activity was 94.3%.
In the case of `O=S(=O)(NCCNC/C=C/c1ccc(Br)cc1)c1cccc2cnccc12`, the residual activity was 96.1%.
With `c1ccc(-c2cnc(Nc3ccc(OCCN4CCCC4)cc3)s2)cc1` the residual activity was 94.3%.

These molecules were tested against KIT (human) (UniProt P10721) in the same assay as above. Details: compound 0.5 µM; ATP 10 µM.
`COc1cc2c(Nc3ccc(Br)cc3F)ncnc2cc1OCC1CCN(C)CC1` gave a residual activity of 71.4%.
With `N/C(=N\N=C/c1ccc(-c2cccc([N+](=O)[O-])c2)o1)N[N+](=O)[O-]` the residual activity was 96.4%.
For `O=S(=O)(NCCNC/C=C/c1ccc(Br)cc1)c1cccc2cnccc12`, the residual activity was 101%.
For `c1ccc(-c2cnc(Nc3ccc(OCCN4CCCC4)cc3)s2)cc1`, the residual activity was 20.3%.

Each molecule was assayed against MAPK13 (human) (UniProt O15264) in the same assay as above. Details: compound 0.5 µM; ATP 10 µM.
Chain of MAPK13 (human) (O15264 whole entry, looked up): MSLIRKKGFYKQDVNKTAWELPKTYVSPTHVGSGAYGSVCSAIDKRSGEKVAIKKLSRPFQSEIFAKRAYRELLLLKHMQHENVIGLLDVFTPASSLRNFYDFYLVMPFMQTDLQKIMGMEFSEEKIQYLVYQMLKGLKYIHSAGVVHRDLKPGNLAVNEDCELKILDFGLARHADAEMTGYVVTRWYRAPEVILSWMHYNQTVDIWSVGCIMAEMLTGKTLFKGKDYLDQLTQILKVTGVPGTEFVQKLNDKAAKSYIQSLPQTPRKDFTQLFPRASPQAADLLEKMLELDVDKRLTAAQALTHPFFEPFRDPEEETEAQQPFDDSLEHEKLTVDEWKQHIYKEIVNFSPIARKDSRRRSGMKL
Work on `COc1cc2c(Nc3ccc(Br)cc3F)ncnc2cc1OCC1CCN(C)CC1` yielded a residual activity of 95.5%.
`N/C(=N\N=C/c1ccc(-c2cccc([N+](=O)[O-])c2)o1)N[N+](=O)[O-]` gave a residual activity of 101%.
`O=S(=O)(NCCNC/C=C/c1ccc(Br)cc1)c1cccc2cnccc12` showed a residual activity of 101%.
`c1ccc(-c2cnc(Nc3ccc(OCCN4CCCC4)cc3)s2)cc1` gave a residual activity of 104%.

What follows are molecules tested against PDGFRB (human) (UniProt P09619) in the same assay as above. Details: compound 0.5 µM; ATP 10 µM.
`CN[C@@H]1C[C@H]2O[C@@](C)([C@@H]1OC)n1c3ccccc3c3c4c(c5c6ccccc6n2c5c31)C(=O)NC4` showed a residual activity of 2.28%.
`N/C(=N\N=C/c1ccc(-c2cccc([N+](=O)[O-])c2)o1)N[N+](=O)[O-]` showed a residual activity of 129%.
Molecule `O=S(=O)(NCCNC/C=C/c1ccc(Br)cc1)c1cccc2cnccc12` has a residual activity of 112%.
With `c1ccc(-c2cnc(Nc3ccc(OCCN4CCCC4)cc3)s2)cc1` the residual activity was 28.5%.

What follows are molecules tested against ERBB4 (human) (UniProt Q15303) in the same assay as above. Details: compound 0.5 µM; ATP 10 µM.
`COc1cc2c(Nc3ccc(Br)cc3F)ncnc2cc1OCC1CCN(C)CC1` was tested, and the residual activity was 45.6%.
In the case of `N/C(=N\N=C/c1ccc(-c2cccc([N+](=O)[O-])c2)o1)N[N+](=O)[O-]`, the residual activity was 103%.
`O=S(=O)(NCCNC/C=C/c1ccc(Br)cc1)c1cccc2cnccc12` showed a residual activity of 94.2%.
With `c1ccc(-c2cnc(Nc3ccc(OCCN4CCCC4)cc3)s2)cc1` the residual activity was 101%.

The molecules below were run against PRKACA (human) (UniProt P17612) in the same assay as above. Details: compound 0.5 µM; ATP 10 µM.
Molecule `CN[C@@H]1C[C@H]2O[C@@](C)([C@@H]1OC)n1c3ccccc3c3c4c(c5c6ccccc6n2c5c31)C(=O)NC4` has a residual activity of 1.93%.
`COc1cc2c(Nc3ccc(Br)cc3F)ncnc2cc1OCC1CCN(C)CC1` gave a residual activity of 92.8%.
With `N/C(=N\N=C/c1ccc(-c2cccc([N+](=O)[O-])c2)o1)N[N+](=O)[O-]` the residual activity was 93.3%.
With `O=S(=O)(NCCNC/C=C/c1ccc(Br)cc1)c1cccc2cnccc12` the residual activity was 10.5%.
For `c1ccc(-c2cnc(Nc3ccc(OCCN4CCCC4)cc3)s2)cc1`, the residual activity was 102%.

These molecules were tested against ITK (human) (UniProt Q08881) in the same assay as above. Details: compound 0.5 µM; ATP 10 µM.
Chain of ITK (human) (Q08881 whole entry, looked up): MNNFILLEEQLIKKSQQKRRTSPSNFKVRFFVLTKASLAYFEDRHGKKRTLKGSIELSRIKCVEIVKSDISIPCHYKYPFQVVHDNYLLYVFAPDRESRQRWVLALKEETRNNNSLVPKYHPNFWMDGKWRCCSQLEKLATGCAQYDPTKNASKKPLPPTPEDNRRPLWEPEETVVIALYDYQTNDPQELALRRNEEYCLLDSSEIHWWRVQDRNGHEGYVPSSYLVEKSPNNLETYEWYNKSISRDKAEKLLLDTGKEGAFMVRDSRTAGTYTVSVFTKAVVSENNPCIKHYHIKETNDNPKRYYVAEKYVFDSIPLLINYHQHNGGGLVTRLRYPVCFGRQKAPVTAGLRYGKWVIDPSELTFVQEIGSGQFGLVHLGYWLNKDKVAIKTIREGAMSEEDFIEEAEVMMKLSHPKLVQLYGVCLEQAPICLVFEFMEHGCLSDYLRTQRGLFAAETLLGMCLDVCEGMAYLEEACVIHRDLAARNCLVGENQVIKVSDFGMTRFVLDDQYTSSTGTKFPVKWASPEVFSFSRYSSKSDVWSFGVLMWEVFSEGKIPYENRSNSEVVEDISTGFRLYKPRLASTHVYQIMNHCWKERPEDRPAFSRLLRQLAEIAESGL
In the case of `CN[C@@H]1C[C@H]2O[C@@](C)([C@@H]1OC)n1c3ccccc3c3c4c(c5c6ccccc6n2c5c31)C(=O)NC4`, the residual activity was 2.89%.
For `COc1cc2c(Nc3ccc(Br)cc3F)ncnc2cc1OCC1CCN(C)CC1`, the residual activity was 101%.
`N/C(=N\N=C/c1ccc(-c2cccc([N+](=O)[O-])c2)o1)N[N+](=O)[O-]` showed a residual activity of 99.5%.
In the case of `O=S(=O)(NCCNC/C=C/c1ccc(Br)cc1)c1cccc2cnccc12`, the residual activity was 86.8%.
In the case of `c1ccc(-c2cnc(Nc3ccc(OCCN4CCCC4)cc3)s2)cc1`, the residual activity was 85.2%.

What follows are molecules tested against PRKCD (human) (UniProt Q05655) in the same assay as above. Details: compound 0.5 µM; ATP 10 µM.
For `COc1cc2c(Nc3ccc(Br)cc3F)ncnc2cc1OCC1CCN(C)CC1`, the residual activity was 103%.
With `N/C(=N\N=C/c1ccc(-c2cccc([N+](=O)[O-])c2)o1)N[N+](=O)[O-]` the residual activity was 94.2%.
For `O=S(=O)(NCCNC/C=C/c1ccc(Br)cc1)c1cccc2cnccc12`, the residual activity was 38.1%.
Work on `c1ccc(-c2cnc(Nc3ccc(OCCN4CCCC4)cc3)s2)cc1` yielded a residual activity of 91.3%.

The molecules below were run against FGFR2 (human) (UniProt P21802) in the same assay as above. Details: compound 0.5 µM; ATP 10 µM.
For `COc1cc2c(Nc3ccc(Br)cc3F)ncnc2cc1OCC1CCN(C)CC1`, the residual activity was 38.4%.
Work on `N/C(=N\N=C/c1ccc(-c2cccc([N+](=O)[O-])c2)o1)N[N+](=O)[O-]` yielded a residual activity of 104%.
For `O=S(=O)(NCCNC/C=C/c1ccc(Br)cc1)c1cccc2cnccc12`, the residual activity was 95.1%.
`c1ccc(-c2cnc(Nc3ccc(OCCN4CCCC4)cc3)s2)cc1` was tested, and the residual activity was 92.7%.

These molecules were tested against MAPK9 (human) (UniProt P45984) in the same assay as above. Details: compound 0.5 µM; ATP 10 µM.
`COc1cc2c(Nc3ccc(Br)cc3F)ncnc2cc1OCC1CCN(C)CC1` showed a residual activity of 96.4%.
`N/C(=N\N=C/c1ccc(-c2cccc([N+](=O)[O-])c2)o1)N[N+](=O)[O-]` gave a residual activity of 111%.
`O=S(=O)(NCCNC/C=C/c1ccc(Br)cc1)c1cccc2cnccc12` showed a residual activity of 93.4%.
Work on `c1ccc(-c2cnc(Nc3ccc(OCCN4CCCC4)cc3)s2)cc1` yielded a residual activity of 144%.

These molecules were tested against YES1 (human) (UniProt P07947) in the same assay as above. Details: compound 0.5 µM; ATP 10 µM.
Chain of YES1 (human) (P07947 whole entry, looked up): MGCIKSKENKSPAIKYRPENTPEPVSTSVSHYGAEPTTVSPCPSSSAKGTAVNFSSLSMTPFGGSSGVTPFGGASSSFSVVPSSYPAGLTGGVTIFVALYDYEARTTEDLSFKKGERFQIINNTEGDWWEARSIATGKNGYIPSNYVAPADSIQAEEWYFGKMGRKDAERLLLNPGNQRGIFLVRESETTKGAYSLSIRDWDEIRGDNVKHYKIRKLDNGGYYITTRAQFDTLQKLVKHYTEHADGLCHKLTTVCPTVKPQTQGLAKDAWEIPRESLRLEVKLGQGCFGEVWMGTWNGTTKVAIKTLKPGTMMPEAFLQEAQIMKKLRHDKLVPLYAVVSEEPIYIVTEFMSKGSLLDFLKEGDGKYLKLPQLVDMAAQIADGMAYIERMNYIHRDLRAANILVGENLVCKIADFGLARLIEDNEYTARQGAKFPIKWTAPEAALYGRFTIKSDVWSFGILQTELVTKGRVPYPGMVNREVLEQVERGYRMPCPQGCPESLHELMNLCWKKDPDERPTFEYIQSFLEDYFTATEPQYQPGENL
Molecule `CN[C@@H]1C[C@H]2O[C@@](C)([C@@H]1OC)n1c3ccccc3c3c4c(c5c6ccccc6n2c5c31)C(=O)NC4` has a residual activity of 4.48%.
In the case of `COc1cc2c(Nc3ccc(Br)cc3F)ncnc2cc1OCC1CCN(C)CC1`, the residual activity was 11.3%.
For `N/C(=N\N=C/c1ccc(-c2cccc([N+](=O)[O-])c2)o1)N[N+](=O)[O-]`, the residual activity was 95.6%.
Work on `O=S(=O)(NCCNC/C=C/c1ccc(Br)cc1)c1cccc2cnccc12` yielded a residual activity of 91.6%.
In the case of `c1ccc(-c2cnc(Nc3ccc(OCCN4CCCC4)cc3)s2)cc1`, the residual activity was 42.1%.

These molecules were tested against SGK2 (human) (UniProt Q9HBY8) in the same assay as above. Details: compound 0.5 µM; ATP 10 µM.
Chain of SGK2 (human) (Q9HBY8 whole entry, looked up): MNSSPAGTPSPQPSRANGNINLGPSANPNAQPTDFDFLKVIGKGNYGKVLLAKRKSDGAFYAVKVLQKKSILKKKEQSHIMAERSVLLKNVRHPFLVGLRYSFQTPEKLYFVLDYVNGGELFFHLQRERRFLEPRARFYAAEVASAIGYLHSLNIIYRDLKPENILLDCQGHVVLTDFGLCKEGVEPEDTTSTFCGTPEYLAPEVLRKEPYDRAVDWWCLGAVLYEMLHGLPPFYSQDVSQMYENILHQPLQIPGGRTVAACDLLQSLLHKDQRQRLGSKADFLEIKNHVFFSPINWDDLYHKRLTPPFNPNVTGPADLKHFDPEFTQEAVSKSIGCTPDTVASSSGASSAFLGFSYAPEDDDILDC
For `COc1cc2c(Nc3ccc(Br)cc3F)ncnc2cc1OCC1CCN(C)CC1`, the residual activity was 122%.
For `N/C(=N\N=C/c1ccc(-c2cccc([N+](=O)[O-])c2)o1)N[N+](=O)[O-]`, the residual activity was 101%.
`O=S(=O)(NCCNC/C=C/c1ccc(Br)cc1)c1cccc2cnccc12` showed a residual activity of 84.2%.
`c1ccc(-c2cnc(Nc3ccc(OCCN4CCCC4)cc3)s2)cc1` was tested, and the residual activity was 101%.

Each molecule was assayed against PRKCE (human) (UniProt Q02156) in the same assay as above. Details: compound 0.5 µM; ATP 10 µM.
Molecule `COc1cc2c(Nc3ccc(Br)cc3F)ncnc2cc1OCC1CCN(C)CC1` has a residual activity of 100%.
`N/C(=N\N=C/c1ccc(-c2cccc([N+](=O)[O-])c2)o1)N[N+](=O)[O-]` gave a residual activity of 90.5%.
Molecule `O=S(=O)(NCCNC/C=C/c1ccc(Br)cc1)c1cccc2cnccc12` has a residual activity of 86.4%.
In the case of `c1ccc(-c2cnc(Nc3ccc(OCCN4CCCC4)cc3)s2)cc1`, the residual activity was 90.5%.

What follows are molecules tested against MERTK (human) (UniProt Q12866) in the same assay as above. Details: compound 0.5 µM; ATP 10 µM.
Chain of MERTK (human) (Q12866 whole entry, looked up): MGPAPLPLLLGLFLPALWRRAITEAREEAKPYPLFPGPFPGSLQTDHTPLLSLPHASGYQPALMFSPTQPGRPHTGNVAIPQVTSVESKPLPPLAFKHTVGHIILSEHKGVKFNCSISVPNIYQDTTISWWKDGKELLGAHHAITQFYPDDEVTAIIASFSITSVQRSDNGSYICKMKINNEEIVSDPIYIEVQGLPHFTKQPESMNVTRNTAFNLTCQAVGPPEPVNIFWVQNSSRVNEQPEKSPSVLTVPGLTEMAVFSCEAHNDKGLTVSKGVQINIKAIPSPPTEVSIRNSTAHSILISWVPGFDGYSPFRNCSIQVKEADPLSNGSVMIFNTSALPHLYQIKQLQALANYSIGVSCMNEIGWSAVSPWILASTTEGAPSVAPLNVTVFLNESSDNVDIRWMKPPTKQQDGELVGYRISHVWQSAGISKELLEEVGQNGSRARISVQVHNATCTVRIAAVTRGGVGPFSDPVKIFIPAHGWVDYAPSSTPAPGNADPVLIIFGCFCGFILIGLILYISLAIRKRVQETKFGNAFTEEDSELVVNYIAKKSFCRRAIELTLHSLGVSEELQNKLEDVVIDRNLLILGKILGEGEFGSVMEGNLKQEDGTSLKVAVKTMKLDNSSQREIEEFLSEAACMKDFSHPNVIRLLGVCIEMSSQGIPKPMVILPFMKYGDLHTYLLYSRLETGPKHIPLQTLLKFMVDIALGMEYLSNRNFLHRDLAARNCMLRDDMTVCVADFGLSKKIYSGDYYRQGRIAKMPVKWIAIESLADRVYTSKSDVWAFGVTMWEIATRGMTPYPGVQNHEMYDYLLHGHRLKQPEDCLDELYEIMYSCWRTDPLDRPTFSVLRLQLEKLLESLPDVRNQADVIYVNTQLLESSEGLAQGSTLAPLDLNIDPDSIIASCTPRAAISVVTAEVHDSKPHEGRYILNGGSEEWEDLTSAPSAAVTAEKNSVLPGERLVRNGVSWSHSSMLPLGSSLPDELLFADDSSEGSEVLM
Molecule `COc1cc2c(Nc3ccc(Br)cc3F)ncnc2cc1OCC1CCN(C)CC1` has a residual activity of 47.9%.
With `N/C(=N\N=C/c1ccc(-c2cccc([N+](=O)[O-])c2)o1)N[N+](=O)[O-]` the residual activity was 92.3%.
In the case of `O=S(=O)(NCCNC/C=C/c1ccc(Br)cc1)c1cccc2cnccc12`, the residual activity was 79.8%.
Molecule `c1ccc(-c2cnc(Nc3ccc(OCCN4CCCC4)cc3)s2)cc1` has a residual activity of 87.8%.

These molecules were tested against PKN1 (human) (UniProt Q16512) in the same assay as above. Details: compound 0.5 µM; ATP 10 µM.
Chain of PKN1 (human) (Q16512 whole entry, looked up): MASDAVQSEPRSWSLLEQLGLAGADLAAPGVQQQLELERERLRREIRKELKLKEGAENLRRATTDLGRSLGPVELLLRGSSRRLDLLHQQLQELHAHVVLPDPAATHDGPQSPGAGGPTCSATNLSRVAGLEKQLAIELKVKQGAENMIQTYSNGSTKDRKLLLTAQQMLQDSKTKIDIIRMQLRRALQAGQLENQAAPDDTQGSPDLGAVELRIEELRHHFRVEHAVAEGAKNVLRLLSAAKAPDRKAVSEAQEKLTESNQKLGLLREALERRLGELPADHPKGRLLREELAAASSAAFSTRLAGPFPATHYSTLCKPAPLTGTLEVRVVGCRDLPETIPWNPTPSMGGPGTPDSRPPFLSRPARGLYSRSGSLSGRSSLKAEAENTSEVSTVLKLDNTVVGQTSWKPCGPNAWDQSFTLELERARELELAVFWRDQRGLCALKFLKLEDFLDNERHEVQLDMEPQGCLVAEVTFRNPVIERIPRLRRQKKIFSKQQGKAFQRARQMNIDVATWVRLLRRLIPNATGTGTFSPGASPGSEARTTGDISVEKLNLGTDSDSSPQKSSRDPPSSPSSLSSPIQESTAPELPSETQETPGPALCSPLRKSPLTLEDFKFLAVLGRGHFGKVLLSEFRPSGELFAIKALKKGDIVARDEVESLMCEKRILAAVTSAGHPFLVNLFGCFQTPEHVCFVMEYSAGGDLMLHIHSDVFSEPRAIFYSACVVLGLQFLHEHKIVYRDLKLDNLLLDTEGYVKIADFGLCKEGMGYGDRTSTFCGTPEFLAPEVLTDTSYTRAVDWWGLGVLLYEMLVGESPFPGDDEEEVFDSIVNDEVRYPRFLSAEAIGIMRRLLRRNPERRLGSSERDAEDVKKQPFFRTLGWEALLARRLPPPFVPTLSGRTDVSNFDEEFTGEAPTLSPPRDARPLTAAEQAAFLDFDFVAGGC
Work on `COc1cc2c(Nc3ccc(Br)cc3F)ncnc2cc1OCC1CCN(C)CC1` yielded a residual activity of 103%.
In the case of `N/C(=N\N=C/c1ccc(-c2cccc([N+](=O)[O-])c2)o1)N[N+](=O)[O-]`, the residual activity was 93.9%.
For `O=S(=O)(NCCNC/C=C/c1ccc(Br)cc1)c1cccc2cnccc12`, the residual activity was 14.3%.
With `c1ccc(-c2cnc(Nc3ccc(OCCN4CCCC4)cc3)s2)cc1` the residual activity was 94.8%.

Each molecule was assayed against FYN (human) (UniProt P06241) in the same assay as above. Details: compound 0.5 µM; ATP 10 µM.
Molecule `COc1cc2c(Nc3ccc(Br)cc3F)ncnc2cc1OCC1CCN(C)CC1` has a residual activity of 48.2%.
With `N/C(=N\N=C/c1ccc(-c2cccc([N+](=O)[O-])c2)o1)N[N+](=O)[O-]` the residual activity was 101%.
In the case of `O=S(=O)(NCCNC/C=C/c1ccc(Br)cc1)c1cccc2cnccc12`, the residual activity was 107%.
Molecule `c1ccc(-c2cnc(Nc3ccc(OCCN4CCCC4)cc3)s2)cc1` has a residual activity of 81.1%.

These molecules were tested against AURKA (human) (UniProt O14965) in the same assay as above. Details: compound 0.5 µM; ATP 10 µM.
For `O=S(=O)(NCCNC/C=C/c1ccc(Br)cc1)c1cccc2cnccc12`, the residual activity was 104%.
For `c1ccc(-c2cnc(Nc3ccc(OCCN4CCCC4)cc3)s2)cc1`, the residual activity was 95.3%.

These molecules were tested against FGFR3 (human) (UniProt P22607) in the same assay as above. Details: compound 0.5 µM; ATP 10 µM.
With `N/C(=N\N=C/c1ccc(-c2cccc([N+](=O)[O-])c2)o1)N[N+](=O)[O-]` the residual activity was 99.6%.

Reference: the kinase profiling compilation of Christmann-Franck et al. (2016)
